Laboratory results: patent publication US20100234400A1, “COMPOUNDS THAT MAINTAIN PLURIPOTENCY OF EMBRYONIC STEM CELLS” (IRM LLC, priority 2005, published 2010)

Each molecule was assayed on Mouse embryonic stem cells (assay: Mouse ES cells keep pluripotency under differentiation medium (DM)). Conditions: Embryonic stem cell, 144 h, measured by maintenance of GFP expression and colony morphology, differentiation medium (BM+0.3 μM RA or DMEM, 20% FBS), 3 + 3 days incubation.
Format: cell-based
Excerpt: Materials used for ES cell maintenance, and examples 4 & 5, infra, include: Oct4-GFP mES cells (feeder layer dependent cells); mES R1 cells (feeder layer independent cells); DMEM (GIBCO, 11965-084); Kouckout DMEM (KO DMEM) (GIBCO, 10829-018); DMEM/F12 (GIBCO, 11330-032); Fetal Bovine Serum (FBS) (GIBCO, 26140-079); Knockout Serum Replacer (KO-SR), (GIBCO, 10828-028); B-27 Serum-free Supplement (50X), (GIBCO017504-044); N-2 Supplement (100X) (GIBCO, 17502-048); LIF (10^6 units) (Chemicon, ESG1106); L-Glutamine (GIBCO, 25030-081); Non-essential amino acids (GIBCO, 11140-050); 2-Mercaptoethanol (1000X), (GIBCO, 21985-023); 0.05% Trypsin-EDTA (GIBCO, 25300-054); 0.1% gelatin solution (Stemcell tech., 07903); Basal medium (BM): KO DMEM, 15% KO-SR, 1X L-glutamine, 1X non-essential amino acid, 1×2-mercaptoethanol; and Growth medium (GM): Basal medium+10^3 unit LIF.
DM induced by retinoic acid (RA): BM+0.3 μM RA, DM induced by FBS: DMEM, 20% FBS. Ninety-six well plates are coated with 0.1% gelatin solution at 37° C. overnight. The gelatin solution is removed by aspiration. Mouse embryonic stem cells are plated on gelatin-coated plates at 10^4 cells/50 μl GM/well. After overnight incubation, the medium is changed to DM and 3 μM of a compound of the invention is added to each well. After 3 days incubation, the medium is replaced with fresh medium and compound. After a further 3 days, the cells are fixed and assayed with pluripotent markers expression and colony morphology. An effective concentration is measured by the maintenance of GFP expression and colony morphology. A list of effective concentrations for various compounds of the invention is disclosed in table 3, infra

Structure (SMILES)	minimal effective concentration
CCNc1ncc2c(n1)N(C)C(=O)N(c1cc(NC(=O)c3cccc(C(F)(F)F)c3)ccc1C)C2 [N-[3-(7-Ethylamino-1-methyl-2-oxo-1,4-dihydro-2H-pyrimido[4,5-d]pyrimidin-3-yl)-4-methyl-phenyl]-3-trifluoromethyl-benzamide]	10 µM
CCn1nccc1Nc1ncc2c(n1)N(C)C(=O)N(c1cc(NC(=O)c3cccc(C(F)(F)F)c3)ccc1C)C2 [N-{3-[7-(2-Ethyl-2H-pyrazol-3-ylamino)-1-methyl-2-oxo-1,4-dihydro-2H-pyrimido[4,5-d]pyrimidin-3-yl]-4-methyl-phenyl}-3-trifluoromethyl-benzamide]	2 µM
CNc1ncc2c(n1)N(C)C(=O)N(c1cc(NC(=O)c3cccc(C(F)(F)F)c3)ccc1C)C2 [N-[4-Methyl-3-(1-methyl-7-methylamino-2-oxo-1,4-dihydro-2H-pyrimido[4,5-d]pyrimidin-3-yl)-phenyl]-3-trifluoromethyl-benzamide]	3 µM
Cc1ccc(NC(=O)c2cccc(C(F)(F)F)c2)cc1N1Cc2cnc(Nc3cccc(N)c3)nc2N(C)C1=O [N-{3-[7-(3-Amino-phenylamino)-1-methyl-2-oxo-1,4-dihydro-2H-pyrimido[4,5-d]pyrimidin-3-yl]-4-methyl-phenyl}-3-trifluoromethyl-benzamide]	2 µM
Cc1cc(Nc2ncc3c(n2)N(C)C(=O)N(c2cc(NC(=O)c4cccc(C(F)(F)F)c4)ccc2C)C3)n(C)n1 [N-{3-[7-(2,5-Dimethyl-2H-pyrazol-3-ylamino)-1-methyl-2-oxo-1,4-dihydro-2H-pyrimido[4,5-d]pyrimidin-3-yl]-4-methyl-phenyl}-3-trifluoromethyl-benzamide]	1 µM
Cc1ccc(NC(=O)c2cccc(C(F)(F)F)c2)cc1N1Cc2cnc(Nc3ccnn3C)nc2N(C)C1=O [N-{4-Methyl-3-[1-methyl-7-(2-methyl-2H-pyrazol-3-ylamino)-2-oxo-1,4-dihydro-2H-pyrimido[4,5-d]pyrimidin-3-yl]-phenyl}-3-trifluoromethyl-benzamide]	1 µM
Cc1ccc(NC(=O)c2cccc(C(F)(F)F)c2)cc1N1Cc2cnc(Nc3cccc(O)c3)nc2N(C)C1=O [N-{3-[7-(3-Hydroxy-phenylamino)-1-methyl-2-oxo-1,4-dihydro-2H-pyrimido[4,5-d]pyrimidin-3-yl]-4-methyl-phenyl}-3-trifluoromethyl-benzamide]	1 µM
Cc1cc(Nc2ncc3c(n2)N(C)C(=O)N(c2cc(NC(=O)c4cccc(C(F)(F)F)c4)ccc2C)C3)cc(C)n1 [N-{3-[7-(2,6-Dimethyl-pyridin-4-ylamino)-1-methyl-2-oxo-1,4-dihydro-2H-pyrimido[4,5-d]pyrimidin-3-yl]-4-methyl-phenyl}-3-trifluoromethyl-benzamide]	5 µM
Cc1ccc(NC(=O)c2cccc(C(F)(F)F)c2)cc1N1Cc2cnc(Nc3cccc(NS(C)(=O)=O)c3)nc2N(C)C1=O [N-{3-[7-(3-Methanesulfonylamino-phenylamino)-1-methyl-2-oxo-1,4-dihydro-2H-pyrimido[4,5-d]pyrimidin-3-yl]-4-methyl-phenyl}-3-trifluoromethyl-benzamide]	2 µM
